# Experimental data taken from patent publication US9708314B2, “Heterocyclic amide compound” (NISSAN CHEMICAL INDUSTRIES, LTD., priority 2013, dated 2017).
# Columns and labels:
# Assay type in all cases: in vivo
# [1] = system: Leptochloa chinensis; experiment: Test Example 3: herbicidal effect by application to foliage (Wagner pot, water depth 0.1-0.5 cm); details: Nineteenth Table; application to foliage; application herbicide amount 320 g/ha
# Method in brief: (§1)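 Grading uses six bands of herbicidal ratio, from 0 (≤5%, almost no effect) to 5 (≥90%, almost completely withered). Treatment was a stem-and-leaf spray of diluted emulsion at a fixed g/ha on 14-day-old plants; evaluation after three weeks.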
# [2] = system: Echinochloa crus-galli var. crus-galli; experiment: as above; details: Nineteenth Table; application to foliage; application herbicide amount 320 g/ha
# Method in brief: as §1
# [3] = system: Cyperus difformis; experiment: as above; details: Nineteenth Table; application to foliage; application herbicide amount 320 g/ha
# Method in brief: as §1
# [4] = system: directly sowed Oryza sativa; experiment: Test Example 3: effect on crop by application to foliage (Wagner pot, water depth 0.1-0.5 cm); details: Nineteenth Table; application to foliage; application herbicide amount 320 g/ha
# Method in brief: as §1
# [5] = system: Monochoria vaginalis; experiment: Test Example 2: herbicidal activity, application during weed generation in submerged conditions; details: Eighteenth Table; application herbicide amount 320 g/ha
# From the text: (§2) 5 Herbicidal ratio of 90% or more (almost completely withered) 4 Herbicidal ratio of 70% or more and less than 90% 3 Herbicidal ratio of 40% or more and less than 70% 2 Herbicidal ratio of 20% or more and less than 40% 1 Herbicidal ratio of 5% or more and less than 20% 0 Herbicidal ratio of 5% or less (almost no effect) [Test Example 2] Herbicidal Activity Test by Application During Weed Generation in Submerged Conditions After alluvial soil was placed into 1/10000 are of Wagner pot, water was poured and mixed to form a submerged condition having a water depth of 4 cm. Seeds of Echinochloa oryzacola Vasing., Scirpus juncoides, and Monochoria vaginalis were sowed in a mixed manner in the above pot and the pot was placed in the greenhouse of 25° C. to 30° C. to grow the plants. When Echinochloa oryzacola Vasing., Scirpus juncoides, and Monochoria vaginalis were grown to one leaf stage to two leaf stage, the emulsion agent containing the compound of the present invention prepared in accordance with Formulation Example 2 was diluted with water so as to be a predetermined herbicide amount and the diluted compound was applied to the surface of the water. Three weeks after the herbicide application, effects on each plant were investigated in accordance with the criteria of Test Example 1. A: Echinochloa oryzicola Vasing., B: Scirpus juncoides, C: Monochoria vaginalis, D: Leptochloa chinensis, E: Cyperus difformis, F: Digitaria ciliaris, G: Setaria viridis, H: Echinochloa crus-galli var. crus-galli, I: Avena fatua, J: Alopecurus myosuroides, K: Lolium multiflorum Lam., L: Apera spica-venti., M: Abutilon theophrasti, N: Amaranthus retroflexus, O: Chenopodium album, P: Stellaria media, Q: Galium spurium, R: Veronica persica, a: transplanted Oryza sativa, b: directly sowed Oryza sativa, c: Zea mays, d: Glycine max, e: Triticum aestivum, f: Beta vulgaris ssp. vulgaris, and g: Brassica campestris L. The application herbicide amount (g/ha) means an amount that a concentration is adjusted so that, when an application amount is converted into per hectare (1 ha), the herbicide is applied by the number of grams (g) of the described value.
# [6] = system: Scirpus juncoides; experiment: as above; details: Eighteenth Table; application herbicide amount 320 g/ha
# From the text: as §2
# [7] = system: Echinochloa oryzacola Vasing.; experiment: as above; details: Eighteenth Table; application herbicide amount 320 g/ha
# From the text: as §2
smiles,measurement,setting,value
Cc1nnc(NC(=O)c2ccc(C(F)(F)F)n3c(NC(C)C)nnc23)o1 [1-090],D (herbicidal effect grade),[1],5 (Herbicidal ratio of 90% or more (almost completely withered))
same,H (herbicidal effect grade),[2],5 (Herbicidal ratio of 90% or more (almost completely withered))
same,E (herbicidal effect grade),[3],5 (Herbicidal ratio of 90% or more (almost completely withered))
same,b (effect on crop grade),[4],0 (Herbicidal ratio of 5% or less (almost no effect))
same,C (Monochoria vaginalis) herbicidal ratio grade,[5],3 (Herbicidal ratio of 40% or more and less than 70%)
same,B (Scirpus juncoides) herbicidal ratio grade,[6],1 (Herbicidal ratio of 5% or more and less than 20%)
same,A (Echinochloa oryzicola Vasing.) herbicidal ratio grade,[7],2 (Herbicidal ratio of 20% or more and less than 40%)
Cc1nnc(NC(=O)c2ccc(C(F)(F)F)n3c(SC(C)(C)C)nnc23)o1 [1-095],D (herbicidal effect grade),[1],4 (Herbicidal ratio of 70% or more and less than 90%)
same,H (herbicidal effect grade),[2],4 (Herbicidal ratio of 70% or more and less than 90%)
same,E (herbicidal effect grade),[3],4 (Herbicidal ratio of 70% or more and less than 90%)
same,b (effect on crop grade),[4],1 (Herbicidal ratio of 5% or more and less than 20%)
same,C (Monochoria vaginalis) herbicidal ratio grade,[5],4 (Herbicidal ratio of 70% or more and less than 90%)
same,B (Scirpus juncoides) herbicidal ratio grade,[6],5 (Herbicidal ratio of 90% or more (almost completely withered))
same,A (Echinochloa oryzicola Vasing.) herbicidal ratio grade,[7],4 (Herbicidal ratio of 70% or more and less than 90%)
COc1cccc(Nc2nnc3c(C(=O)Nc4nnc(C)o4)ccc(C(F)(F)F)n23)n1 [1-102],D (herbicidal effect grade),[1],5 (Herbicidal ratio of 90% or more (almost completely withered))
same,H (herbicidal effect grade),[2],4 (Herbicidal ratio of 70% or more and less than 90%)
same,E (herbicidal effect grade),[3],4 (Herbicidal ratio of 70% or more and less than 90%)
same,b (effect on crop grade),[4],2 (Herbicidal ratio of 20% or more and less than 40%)
same,C (Monochoria vaginalis) herbicidal ratio grade,[5],1 (Herbicidal ratio of 5% or more and less than 20%)
same,B (Scirpus juncoides) herbicidal ratio grade,[6],1 (Herbicidal ratio of 5% or more and less than 20%)
same,A (Echinochloa oryzicola Vasing.) herbicidal ratio grade,[7],1 (Herbicidal ratio of 5% or more and less than 20%)
COCC[S+]([O-])c1nnc2c(C(=O)Nc3nnc(C)o3)ccc(C(F)(F)F)n12 (centres unmarked) [1-073],D (herbicidal effect grade),[1],5 (Herbicidal ratio of 90% or more (almost completely withered))
same,H (herbicidal effect grade),[2],5 (Herbicidal ratio of 90% or more (almost completely withered))
same,E (herbicidal effect grade),[3],5 (Herbicidal ratio of 90% or more (almost completely withered))
same,b (effect on crop grade),[4],4 (Herbicidal ratio of 70% or more and less than 90%)
same,C (Monochoria vaginalis) herbicidal ratio grade,[5],1 (Herbicidal ratio of 5% or more and less than 20%)
same,B (Scirpus juncoides) herbicidal ratio grade,[6],2 (Herbicidal ratio of 20% or more and less than 40%)
same,A (Echinochloa oryzicola Vasing.) herbicidal ratio grade,[7],2 (Herbicidal ratio of 20% or more and less than 40%)
CSCCc1nnc2c(C(=O)Nc3nnc(C)o3)ccc(C(F)(F)F)n12 [1-083],D (herbicidal effect grade),[1],5 (Herbicidal ratio of 90% or more (almost completely withered))
same,H (herbicidal effect grade),[2],5 (Herbicidal ratio of 90% or more (almost completely withered))
same,E (herbicidal effect grade),[3],5 (Herbicidal ratio of 90% or more (almost completely withered))
same,b (effect on crop grade),[4],2 (Herbicidal ratio of 20% or more and less than 40%)
same,C (Monochoria vaginalis) herbicidal ratio grade,[5],2 (Herbicidal ratio of 20% or more and less than 40%)
same,B (Scirpus juncoides) herbicidal ratio grade,[6],2 (Herbicidal ratio of 20% or more and less than 40%)
same,A (Echinochloa oryzicola Vasing.) herbicidal ratio grade,[7],2 (Herbicidal ratio of 20% or more and less than 40%)
CCC[S+]([O-])c1nnc2c(C(=O)Nc3nnc(C)o3)ccc(C(F)(F)F)n12 (centres unmarked) [1-092],D (herbicidal effect grade),[1],5 (Herbicidal ratio of 90% or more (almost completely withered))
same,H (herbicidal effect grade),[2],5 (Herbicidal ratio of 90% or more (almost completely withered))
same,E (herbicidal effect grade),[3],5 (Herbicidal ratio of 90% or more (almost completely withered))
same,b (effect on crop grade),[4],4 (Herbicidal ratio of 70% or more and less than 90%)
same,C (Monochoria vaginalis) herbicidal ratio grade,[5],3 (Herbicidal ratio of 40% or more and less than 70%)
same,B (Scirpus juncoides) herbicidal ratio grade,[6],4 (Herbicidal ratio of 70% or more and less than 90%)
same,A (Echinochloa oryzicola Vasing.) herbicidal ratio grade,[7],4 (Herbicidal ratio of 70% or more and less than 90%)
C#CCSc1nnc2c(C(=O)Nc3nnc(C)o3)ccc(C(F)(F)F)n12 [1-065],D (herbicidal effect grade),[1],1 (Herbicidal ratio of 5% or more and less than 20%)
same,H (herbicidal effect grade),[2],3 (Herbicidal ratio of 40% or more and less than 70%)
same,E (herbicidal effect grade),[3],3 (Herbicidal ratio of 40% or more and less than 70%)
same,b (effect on crop grade),[4],0 (Herbicidal ratio of 5% or less (almost no effect))
same,C (Monochoria vaginalis) herbicidal ratio grade,[5],2 (Herbicidal ratio of 20% or more and less than 40%)
same,B (Scirpus juncoides) herbicidal ratio grade,[6],2 (Herbicidal ratio of 20% or more and less than 40%)
same,A (Echinochloa oryzicola Vasing.) herbicidal ratio grade,[7],1 (Herbicidal ratio of 5% or more and less than 20%)
Cc1nnc(NC(=O)c2ccc(C(F)(F)F)n3c(CO)nnc23)o1 [1-067],D (herbicidal effect grade),[1],5 (Herbicidal ratio of 90% or more (almost completely withered))
same,H (herbicidal effect grade),[2],5 (Herbicidal ratio of 90% or more (almost completely withered))
same,E (herbicidal effect grade),[3],5 (Herbicidal ratio of 90% or more (almost completely withered))
same,b (effect on crop grade),[4],2 (Herbicidal ratio of 20% or more and less than 40%)
CCCSc1nnc2c(C(=O)Nc3nnc(C)o3)ccc(C(F)(F)F)n12 [1-087],D (herbicidal effect grade),[1],5 (Herbicidal ratio of 90% or more (almost completely withered))
same,H (herbicidal effect grade),[2],5 (Herbicidal ratio of 90% or more (almost completely withered))
same,E (herbicidal effect grade),[3],5 (Herbicidal ratio of 90% or more (almost completely withered))
same,b (effect on crop grade),[4],1 (Herbicidal ratio of 5% or more and less than 20%)
same,C (Monochoria vaginalis) herbicidal ratio grade,[5],3 (Herbicidal ratio of 40% or more and less than 70%)
same,A (Echinochloa oryzicola Vasing.) herbicidal ratio grade,[7],4 (Herbicidal ratio of 70% or more and less than 90%)
C#CC[S+]([O-])c1nnc2c(C(=O)Nc3nnc(C)o3)ccc(C(F)(F)F)n12 (centres unmarked) [1-077],D (herbicidal effect grade),[1],4 (Herbicidal ratio of 70% or more and less than 90%)
same,H (herbicidal effect grade),[2],5 (Herbicidal ratio of 90% or more (almost completely withered))
same,E (herbicidal effect grade),[3],3 (Herbicidal ratio of 40% or more and less than 70%)
same,b (effect on crop grade),[4],0 (Herbicidal ratio of 5% or less (almost no effect))
Cc1nnc(NC(=O)c2cc(C)c(C(F)(F)F)n3c(C(C)C)nnc23)o1 [1-075],D (herbicidal effect grade),[1],4 (Herbicidal ratio of 70% or more and less than 90%)
same,H (herbicidal effect grade),[2],5 (Herbicidal ratio of 90% or more (almost completely withered))
same,E (herbicidal effect grade),[3],4 (Herbicidal ratio of 70% or more and less than 90%)
same,b (effect on crop grade),[4],1 (Herbicidal ratio of 5% or more and less than 20%)
Cc1nnc(NC(=O)c2ccc(C(F)(F)F)n3c(Nc4ccccc4)nnc23)o1 [1-082],D (herbicidal effect grade),[1],4 (Herbicidal ratio of 70% or more and less than 90%)
same,H (herbicidal effect grade),[2],4 (Herbicidal ratio of 70% or more and less than 90%)
same,E (herbicidal effect grade),[3],4 (Herbicidal ratio of 70% or more and less than 90%)
same,b (effect on crop grade),[4],0 (Herbicidal ratio of 5% or less (almost no effect))
